# Assay results taken from the NIST ThermoML archive (doi:10.1021/je0301040).
# ± gives the expanded uncertainty stated by the source.
# Experiment: xn = mol fraction of the nth substance listed
smiles,measurement,setting,value
FC(Cl)(Cl)Cl [trichlorofluoromethane] + FC(F)Cl,mass density,"424.96 K, 293.85 kPa, Fluid (supercritical or subcritical phases), Burnett expansion method, x1 = 0.832",11.0367 ± 0.22 kg/m3
same,mass density,"424.96 K, 373.9 kPa, Fluid (supercritical or subcritical phases), Burnett expansion method, x1 = 0.832",14.1459 ± 0.28 kg/m3
same,mass density,"424.96 K, 418.92 kPa, Fluid (supercritical or subcritical phases), Burnett expansion method, x1 = 0.832",15.9304 ± 0.32 kg/m3
same,mass density,"424.96 K, 445.3 kPa, Gas, isochoric method, x1 = 0.832",131.354 ± 0.093 kg/m3
same,mass density,"424.96 K, 567.37 kPa, Fluid (supercritical or subcritical phases), Burnett expansion method, x1 = 0.832",21.9341 ± 0.44 kg/m3
same,mass density,"424.96 K, 662.1 kPa, Gas, isochoric method, x1 = 0.832",200.808 ± 0.14 kg/m3
same,mass density,"424.96 K, 663.7 kPa, Gas, isochoric method, x1 = 0.832",200.808 ± 0.14 kg/m3
same,mass density,"424.96 K, 715.19 kPa, Fluid (supercritical or subcritical phases), Burnett expansion method, x1 = 0.832",28.1109 ± 0.56 kg/m3
same,mass density,"424.96 K, 797.38 kPa, Fluid (supercritical or subcritical phases), Burnett expansion method, x1 = 0.832",31.6606 ± 0.63 kg/m3
same,mass density,"424.96 K, 967.2 kPa, Gas, isochoric method, x1 = 0.832",303.998 ± 0.094 kg/m3
same,mass density,"424.96 K, 969 kPa, Gas, isochoric method, x1 = 0.832",303.998 ± 0.094 kg/m3
same,mass density,"424.96 K, 1086 kPa, Fluid (supercritical or subcritical phases), Burnett expansion method, x1 = 0.832",44.6324 ± 0.9 kg/m3
same,mass density,"424.96 K, 1298.4 kPa, Gas, isochoric method, x1 = 0.832",426.053 ± 0.33 kg/m3
same,mass density,"424.96 K, 1299.4 kPa, Gas, isochoric method, x1 = 0.832",426.053 ± 0.33 kg/m3
same,mass density,"424.96 K, 1617.2 kPa, Gas, isochoric method, x1 = 0.832",556.221 ± 0.17 kg/m3
same,mass density,"424.96 K, 1619.2 kPa, Gas, isochoric method, x1 = 0.832",556.221 ± 0.17 kg/m3
same,mass density,"424.96 K, 3854.3 kPa, Liquid, Pycnometric method, x1 = 0.8336",1012.94 ± 3.5 kg/m3
same,mass density,"424.96 K, 4517.9 kPa, Liquid, Pycnometric method, x1 = 0.8336",1028.76 ± 3.4 kg/m3
same,mass density,"424.96 K, 7331.5 kPa, Liquid, Pycnometric method, x1 = 0.8336",1077.17 ± 2.6 kg/m3
same,mass density,"424.96 K, 20744 kPa, Liquid, Pycnometric method, x1 = 0.8336",1193.05 ± 1.9 kg/m3
same,mass density,"424.96 K, 49662 kPa, Liquid, Pycnometric method, x1 = 0.8336",1310.9 ± 1.5 kg/m3
same,mass density,"424.96 K, 65344 kPa, Liquid, Pycnometric method, x1 = 0.8336",1352.8 ± 1.5 kg/m3
same,mass density,"424.97 K, 150.03 kPa, Fluid (supercritical or subcritical phases), Burnett expansion method, x1 = 0.832",5.5536 ± 0.11 kg/m3
same,mass density,"424.97 K, 153.48 kPa, Fluid (supercritical or subcritical phases), Burnett expansion method, x1 = 0.832",5.6866 ± 0.11 kg/m3
same,mass density,"424.97 K, 215.05 kPa, Fluid (supercritical or subcritical phases), Burnett expansion method, x1 = 0.832",8.0157 ± 0.16 kg/m3
same,mass density,"424.97 K, 300.89 kPa, Fluid (supercritical or subcritical phases), Burnett expansion method, x1 = 0.832",11.3011 ± 0.23 kg/m3
same,mass density,"424.97 K, 409.41 kPa, Fluid (supercritical or subcritical phases), Burnett expansion method, x1 = 0.832",15.5588 ± 0.31 kg/m3
same,mass density,"424.97 K, 444.8 kPa, Gas, isochoric method, x1 = 0.832",131.354 ± 0.093 kg/m3
same,mass density,"424.97 K, 518.76 kPa, Fluid (supercritical or subcritical phases), Burnett expansion method, x1 = 0.832",19.9414 ± 0.4 kg/m3
same,mass density,"424.97 K, 580.12 kPa, Fluid (supercritical or subcritical phases), Burnett expansion method, x1 = 0.832",22.4579 ± 0.45 kg/m3
same,mass density,"424.97 K, 977.19 kPa, Fluid (supercritical or subcritical phases), Burnett expansion method, x1 = 0.832",39.6298 ± 0.8 kg/m3
same,mass density,"424.97 K, 1317.5 kPa, Fluid (supercritical or subcritical phases), Burnett expansion method, x1 = 0.832",55.8677 ± 1.1 kg/m3
same,mass density,"424.97 K, 3592.7 kPa, Liquid, Pycnometric method, x1 = 0.8336",1005.84 ± 3.6 kg/m3
same,mass density,"424.97 K, 4190.2 kPa, Liquid, Pycnometric method, x1 = 0.8336",1021.29 ± 3.4 kg/m3
same,mass density,"424.97 K, 4853 kPa, Liquid, Pycnometric method, x1 = 0.8336",1035.91 ± 3 kg/m3
same,mass density,"424.97 K, 5457.4 kPa, Liquid, Pycnometric method, x1 = 0.8336",1047.58 ± 3 kg/m3
same,mass density,"424.97 K, 6169.4 kPa, Liquid, Pycnometric method, x1 = 0.8336",1059.78 ± 3 kg/m3
same,mass density,"424.97 K, 14203 kPa, Liquid, Pycnometric method, x1 = 0.8336",1148.26 ± 2.2 kg/m3
same,mass density,"424.97 K, 27900 kPa, Liquid, Pycnometric method, x1 = 0.8336",1230.65 ± 1.7 kg/m3
same,mass density,"424.97 K, 35700 kPa, Liquid, Pycnometric method, x1 = 0.8336",1263.74 ± 1.6 kg/m3
same,mass density,"424.97 K, 42738 kPa, Liquid, Pycnometric method, x1 = 0.8336",1289.02 ± 1.5 kg/m3
same,mass density,"424.97 K, 56282 kPa, Liquid, Pycnometric method, x1 = 0.8336",1329.7 ± 1.5 kg/m3
same,mass density,"424.97 K, 61980 kPa, Liquid, Pycnometric method, x1 = 0.8336",1344.58 ± 1.4 kg/m3
same,mass density,"429.96 K, 2000.6 kPa, Gas, isochoric method, x1 = 0.832",715.595 ± 0.22 kg/m3
same,mass density,"429.96 K, 2000.8 kPa, Gas, isochoric method, x1 = 0.832",715.595 ± 0.66 kg/m3
same,mass density,"429.96 K, 2002.4 kPa, Gas, isochoric method, x1 = 0.832",715.595 ± 0.22 kg/m3
same,mass density,"474.95 K, 4750 kPa, Fluid (supercritical or subcritical phases), Burnett expansion method, x1 = 0.832",271.514 ± 5.5 kg/m3
same,mass density,"474.97 K, 1108 kPa, Fluid (supercritical or subcritical phases), Burnett expansion method, x1 = 0.832",39.0371 ± 0.78 kg/m3
same,mass density,"474.98 K, 322.47 kPa, Fluid (supercritical or subcritical phases), Burnett expansion method, x1 = 0.832",10.7116 ± 0.21 kg/m3
same,mass density,"474.98 K, 601.7 kPa, Fluid (supercritical or subcritical phases), Burnett expansion method, x1 = 0.832",20.4396 ± 0.41 kg/m3
same,mass density,"474.98 K, 1965.5 kPa, Fluid (supercritical or subcritical phases), Burnett expansion method, x1 = 0.832",74.5021 ± 1.5 kg/m3
same,mass density,"474.98 K, 1995.2 kPa, Fluid (supercritical or subcritical phases), Burnett expansion method, x1 = 0.832",75.9597 ± 1.5 kg/m3
same,mass density,"474.98 K, 3255.8 kPa, Fluid (supercritical or subcritical phases), Burnett expansion method, x1 = 0.832",142.18 ± 2.9 kg/m3
same,mass density,"474.98 K, 3296.6 kPa, Fluid (supercritical or subcritical phases), Burnett expansion method, x1 = 0.832",144.503 ± 2.9 kg/m3
same,mass density,"474.98 K, 4786.8 kPa, Fluid (supercritical or subcritical phases), Burnett expansion method, x1 = 0.832",274.877 ± 5.5 kg/m3
same,mass density,"474.98 K, 5920.1 kPa, Fluid (supercritical or subcritical phases), Burnett expansion method, x1 = 0.832",522.524 ± 11 kg/m3
same,mass density,"474.98 K, 13635 kPa, Fluid (supercritical or subcritical phases), Burnett expansion method, x1 = 0.832",993.788 ± 20 kg/m3
same,mass density,"474.99 K, 590.67 kPa, Fluid (supercritical or subcritical phases), Burnett expansion method, x1 = 0.832",20.1833 ± 0.4 kg/m3
same,mass density,"474.99 K, 1081.5 kPa, Fluid (supercritical or subcritical phases), Burnett expansion method, x1 = 0.832",38.4124 ± 0.77 kg/m3
same,mass density,"474.99 K, 1126.1 kPa, Fluid (supercritical or subcritical phases), Burnett expansion method, x1 = 0.832",39.9341 ± 0.8 kg/m3
same,mass density,"474.99 K, 1933.1 kPa, Fluid (supercritical or subcritical phases), Burnett expansion method, x1 = 0.832",73.0924 ± 1.5 kg/m3
same,mass density,"474.99 K, 3211.7 kPa, Fluid (supercritical or subcritical phases), Burnett expansion method, x1 = 0.832",139.089 ± 2.8 kg/m3
same,mass density,"474.99 K, 4708.1 kPa, Fluid (supercritical or subcritical phases), Burnett expansion method, x1 = 0.832",264.786 ± 5.4 kg/m3
same,mass density,"475 K, 5875.1 kPa, Fluid (supercritical or subcritical phases), Burnett expansion method, x1 = 0.832",503.942 ± 11 kg/m3
same,mass density,"475 K, 5905.8 kPa, Fluid (supercritical or subcritical phases), Burnett expansion method, x1 = 0.832",518.038 ± 11 kg/m3
same,mass density,"475 K, 12413 kPa, Fluid (supercritical or subcritical phases), Burnett expansion method, x1 = 0.832",958.868 ± 19 kg/m3
same,mass density,"475.01 K, 13484 kPa, Fluid (supercritical or subcritical phases), Burnett expansion method, x1 = 0.832",988.822 ± 20 kg/m3
